biological target: benzodiazepine modulatory unit (GABAA receptor complex); experiment: In vitro inhibition of 3H-flunitrazepam (3H-FNM) binding; parameters: species or system rat; conditions: inhibition of specific binding of 3H-FNM (1 nM); cerebral cortex membranes from male Wistar rats; 40 min at 2° C.
Method: In vitro inhibition of ^3H-flunitrazepam (^3H-FNM) binding
The GABA recognition site and the benzodiazepine modulatory unit can selectively be labelled with ^3H-flunitrazepam.
Preparations are performed at 0-4° C. unless otherwise indicated. Cerebral cortex from male Wistar rats (150-200 g) is homogenised for 5-10 sec in 20 ml Tris-HCl (30 mM, pH 7.4) using an Ultra-Turrax homogeniser. The suspension is centrifuged at 27,000×g for 15 min and the pellet is washed three times with buffer (centrifuged at 27,000×g for 10 min). The washed pellet is homogenized in 20 ml of buffer and incubated on a water bath (37° C.) for 30 min to remove endogenous GABA and then centrifuged for 10 min at 27,000×g. The pellet is then homogenized in buffer and centrifuged for 10 min at 27,000×g. The final pellet is resuspended in 30 ml buffer and the preparation is frozen and stored at −20° C.
The membrane preparation is thawed and centrifuged at 2° C. for 10 min at 27,000×g. The pellet is washed twice with 20 ml 50 mM Tris-citrate, pH 7.1 using an Ultra-Turrax homogeniser and centrifuged for 10 min at 27,000×g. The final pellet is resuspended in 50 mM Tris-citrate, pH 7.1 (500 ml buffer per g of original tissue), and then used for binding assays. Aliquots of 0.5 ml tissue are added to 25 μl of test solution and 25 μl of ^3H-FNM (1 nM, final concentration), mixed and incubated for 40 min at 2° C. Non-specific binding is determined using Clonazepam (1 μM, final concentration). After incubation the samples are added 5 ml of ice-cold buffer and poured directly onto Whatman GF/C glass fibre filters under suction and immediately washed with 5 ml ice-cold buffer. The amount of radioactivity on the filters is determined by conventional liquid scintillation counting. Specific binding is total binding minus non-specific binding.
25-75% inhibition of specific binding must be obtained, before calculation of an IC50.
The test value will be given as IC50 (the concentration (μM) of the test substance which inhibits the specific binding of ^3H-FNM by 50%).

IC50 [nM] | Structure (SMILES)
800 | Nc1cccc(-c2cn(-c3cccc(-c4ccccc4)c3)cn2)c1 [1-Biphenyl-3-yl-4-(3-amino-phenyl)-1H-imidazole]
460 | COc1ccc(-c2cn(-c3cccc(-c4ccccc4)c3)cn2)cc1 [1-Biphenyl-3-yl-4-(4-methoxy-phenyl)-1H-imidazole]
100 | N#Cc1cccc(-n2cnc(-c3ccccc3)c2)c1 [3-(4-Phenyl-imidazol-1-yl)-benzonitrile]

Source: patent US20080312303A1, “Imidazole Derivatives and Their Use for Modulating the Gabaa Receptor Complex” (NeuroSearch A/S, priority 2005, published 2008)
